The values below come from patent publication US4567201A, “Diphenoxypropane derivatives and compositions of antiasthmatic and antiinflammatory agents thereof” (Takeda Chemical Industries, Ltd., priority 1981, dated 1986).

As usually defined, the IC50 is the concentration at which inhibition is half-maximal. Low values mean higher potency, high ones lower potency.

Data set [1] concerns bronchoconstriction due to leukotriene D4 (LTD4). Description: Inhibition of bronchoconstriction due to intravenous LTD4 in guinea pigs (Konzett-Rossler). It counts as in vivo, guinea pig (Hartley strain). To be noted: for Percent increase of overflow: 2 minutes before LTD4 10 μg/kg i.v., Mean±S.E.; for Percent inhibition: 2 minutes before LTD4 (Table 2). As to the method:
Guinea pigs of Hartley strain, both male and female, with body weights about 400 g were assigned to groups of 6 individuals, and the bronchoconstriction due to LTD4 were measured according to the method of Konzett-Rossler, [Konzett, H. and Rossler, R.: Naunyn-Schmiedebergs Archiv Fur Experimentelle Pathologie und Pharmakologie 195, 71-74 (1940)]. Each guinea pig was fixed in supine position under urethane anesthesia (1.5 g/kg, intraperitoneal) and the trachea was incised and connected to an artificial respiration apparatus, Rodent Respirator Model 680 [Harvard Apparatus Company, U.S.A.] via a cannula. The branch tube of this tracheal cannula was connected to Bronchospasm Transducer Model 7020 [Ugobasil Biological Research Apparatus, Italy]. Under the conditions of 5 to 7 ml of air per stroke, 70 strokes per minute and a lung loading pressure of 10 cmH2 O, the volume of overflowing air was recorded on Rectigraph-8S (Sanei Sokki Ltd., Japan) via a transducer. After administration of gallamine triethiodide (1 mg/kg, i.v.), 10 μ g/kg of histamine.2HCl was intravenously administered to investigate the response of the animal. Then, a solution of LTD4 in physiological saline (10 μg/kg) was intravenously administered and the bronchoconstriction elicited thereby was recorded for 15 minutes. Two minutes before LTD4 loading, compound (I)-A-1 was intravenously administered in a volume of 0.1 ml per 100 g body weight. Compound (I)-A-1 and LTD4 were administered through a cannula inserted into the jugular vein.
The compound (I)-A-1 was used as dissolved in physiological saline containing sodium hydrogen carbonate, and LTD4 was taken from a stock stored in methanol (1 mg/1 ml methanol) at -70° C.
The bronchoconstriction induced by intravenous administration of 10 μg/kg of LTD4 as given 2 minutes after the administration of physiological saline was maximal at the time of 30 seconds after the administration of LTD4 and, since then, was rapidly attenuated to about 50% at the time of 2 minutes but lasted till 15 minutes. Assuming that the response at complete obstruction is 100%, the values at 30 seconds and 15 minutes were 47.4±6.9% (n=6, Mean±S.E.) and 19.4±2.8% (Mean±S.E.), respectively (S.E.: standard error).
Then the present inventors studied the antagonistic action of the compound (I)-B against SRS-A using a synthetic LTD4 in the manner described on the compound (I)-A.
In each case, the bronchoconstriction following intravenous administration of 10 μg/kg of LTD4 at 2 or 30 minutes after the administration of physiological saline reached a maximum 30 seconds after the administration of LTD4, and then decreased to about 50% at 2 minutes after the administration of LTD4. The response continued for 15 minutes after the administration of LTD4. Repeated experiments using 6 animals per group gave mean degrees of maximum bronchoconstriction (30-second values) of 52.2-67.1% and 54.7-70.1%, respectively, as compared with the state of complete obstruction (100%). In experiment 1, the test compounds (I)-B-1, (I)-B-2 and Control compound-1 were each intravenously administered at two minutes before the administration of LTD4 and inhibitory effect on the bronchoconstriction was examined. The minimum effective doses (causing statistically significant differences as compared with the control group; significance level <5%) were 0.313, 0.313 and 5 mg/kg, respectively. The corresponding inhibition percentages were 41, 52 and 56%, respectively. In experiment 2, the test compounds were intravenously administered 30 minutes before the administration of LTD4 and the effect on the above response was examined. The minimum effective doses were 5, 5, and 20 mg/kg, respectively.
The test compounds were intravenously administered 2 minutes before the
intravenous administration of 10 μg/kg of LTD4.
The test compounds were intravenously administered 30 minutes before the
Each value was calculated from the volume (in percentage) of air […]

The next data set relates to Carrageenin edema. Description: Carrageenin edema in rats. It is filed as in vivo, rat. To be noted: for Percent inhibition: carrageenin edema; for Mean volume of edematous swelling ±S.E.: in ml (unit assumed). The protocol: The volume of the right hind paw of each rat was measured and the test compound suspended in 4% gum arabic solution was orally administered in an amount of 1 ml/100 g body weight. Immediately thereafter, a further amount of water was given to make the total dosing volume 5 ml. After 1 hour, 0.05 ml of a 1% suspension of carageenin in physiological saline was subcutaneously injected into the foot pad. Three hours after the carrageenin injection, the volume of the paw was measured again and the volume of the edema was calculated as a difference between this measured volume of the paw and the volume before the injection.
In the case of intravenous administration, a solution of the test compound in an aqueous solution of NaHCO3 was intravenously administered in an amount of 2.0 ml/100 g body weight and 5 ml of water per animal was orally administered. Then, carrageenin was injected subcutaneously to produce edema.
(In general: Carrageenan injected into the paw causes an acute inflammation.)

The next data set in a line: Acute toxicity in mice. It is filed as in vivo, mouse (Jcl:ICR strain). To be noted: 500 mg/kg oral. The protocol: Five 5-week-old male mice of Jcl:ICR strain, weighing 26.0 to 30.5 g, were used. Compound (I)-A-1 was suspended in a 5% solution of gum arabic and administered orally by gastric gavage at the level of 0.2 ml per 10 grams body weight.
Five 5-week-old male mice of Jcl:ICR strain, weighing 26.0 to 30.5 g, were used. Compound (I)-B-1 or (I)-B-2 was suspended in a 5% solution of gum arabic and administered orally by gastric gavage at the level of 0.2 ml per 10 grams body weight.

Data set [2] relates to leukotriene D4 (LTD4)-induced contraction of the guinea pig ileum. Description: Anti-SRS-A activity: inhibition of LTD4-induced contraction of guinea pig ileum. To be noted: 50% inhibition of LTD4-induced contraction (60-70% of maximum contraction), drug added 1 minute before LTD4. The source says: The present inventors studied the antagonistic action of compound (I)-A against SRS-A using a synthetic LTD4 in the following manner.
The inhibitory effect of the drug on the contractile response (60-70% of maximum contraction) of the ileum of guinea pig (body weight 300-350 g, female and male) to leukotriene D4 (LTD4) was investigated. In Tyrode solution containing atropine (10^-7 M) and mepyramine (10^-6 M), 3×10^-10 or 10^-9 M of LTD4 was repeatedly permitted to act on the guinea pig ileum and after the amplitude of contraction had become constant, a solution of the test drug was added to a final concentration of 10^-9 to 10^-4 M. After 1 minute, the same concentration of LTD4 was further added and the anti-SRS-A activity of the drug was calculated from the change in contraction amplitude by means of the following equation. [formula]
To obtain the IC50 value, the mole concentration of the drug showing a 50% inhibition of the contractile response was determined from plots on a graph.
The drug was used as dissolved in dimethyl sulfoxide. The solvent was used in an amount less than 1% which would not exert any influence on the ileum.

Each structure is given as a SMILES string.

For `CCCc1c(OCC(O)COc2ccc(-c3nn[nH]n3)cc2Cl)ccc(C(C)=O)c1O` (centres unmarked) [Compound (I)-A-1, 4-[3-[4-(tetrazol-5-yl)-2-chlorophenoxy]-2-hydroxypropoxy]-2-hydroxy-3-propylacetophenone], the “Percent increase of overflow” value is 29.1 ± 7.5% in data set [1] (0.08 mg/kg i.v., 8 animals); 28.1 ± 7.1% in data set [1] (0.313 mg/kg i.v., 6 animals); 23.4 ± 8.0% in data set [1] (1.25 mg/kg i.v., 6 animals, *p<0.05 vs physiological saline control); 3.3 ± 2.1% in data set [1] (5 mg/kg i.v., 6 animals, ***p<0.001 vs physiological saline control). In addition, the Percent inhibition in data set [1] (0.08 mg/kg i.v.) worked out at 39%; in data set [1] (0.313 mg/kg i.v.) it was 41%; in data set [1] (1.25 mg/kg i.v.), 51%; in data set [1] (5 mg/kg i.v.), 93%; in the data set on Carrageenin edema (1 mg/kg i.v.), 19.2%; in the data set with Carrageenin edema (10 mg/kg i.v.), 25.0%. Also, in the data set on Carrageenin edema (50 mg/kg p.o.), the Percent inhibition amounted to 15.0%. Further, the “inhibition of LTD4 bronchoconstriction (in words)” value in data set [1] (5 mg/kg i.v., 2 minutes before LTD4) is recorded as “substantially complete inhibition”. Also, the “inhibitory effect against LTD4 bronchoconstriction (in words)” value in data set [1] (intravenously administered 2 minutes before LTD4 dosing) is listed as “remarkable inhibitory effect”. Also, the “Mean volume of edematous swelling ±S.E.” value is reported as 0.442 ± 0.044 in the data set on Carrageenin edema (1 mg/kg i.v.); 0.410 ± 0.046 in the data set on Carrageenin edema (10 mg/kg i.v., *p<0.05); 0.487 ± 0.023 in the data set with Carrageenin edema (50 mg/kg p.o., 3 hours after carrageenin, *p<0.05). The “antiinflammatory activity (in words)” value in the data set on Carrageenin edema (rat, in vivo) was “has an antiinflammatory activity”. Besides, in “Acute toxicity in mice” (after 1 week), the Autopsy findings result is “did not reveal any abnormalities”. For the same compound, in “Acute toxicity in mice” (male mice), the “symptoms attributable to compound after oral administration” value is recorded as “no symptoms”. For the same compound, the IC50 in data set [2] is 4.1 nM.
